Measurements published in patent US10364247B2, “Preparation and use of novel protein kinase inhibitors” (Ruijin Hospital Affiliated to Shanghai Jiao Tong University …, priority 2015, dated 2019).

Assays:
Assay in all cases: KINOMEscan competition binding
NEK4 = target: T1, NEK4 (Homo sapiens, UniProt P51957); conditions: read-out: Percent Control
T1 construct: purchased KINOMEscan (screening platform)
Protocol: (§1) KINOMEscan™ is based on a competition binding assay that quantitatively measures the ability of a compound to compete with an immobilized, active-site directed ligand (Fabian et al. (2005) Nat. Biotechnol. 23, 329; Karaman et al. (2008) Nat. Biotechnol. 26, 127). The compound was screened at 10 μM, and results for primary screen binding interactions are reported as ‘% Ctrl’, where lower numbers indicate stronger hits. The results for kinases targets with a % Ctrl less than 30 can be seen in Table 2.

JNK2 = JNK2 (Homo sapiens, UniProt P45984); conditions: JNK2 (Entrez MAPK9), read-out: Percent Control
Protocol: as §1

HCK = HCK (Homo sapiens, UniProt P08631); conditions: read-out: Percent Control
Protocol: as §1

ZAK = ZAK (Homo sapiens, UniProt Q9NYL2); conditions: read-out: Percent Control
ZAK, sequence (Q9NYL2 whole entry): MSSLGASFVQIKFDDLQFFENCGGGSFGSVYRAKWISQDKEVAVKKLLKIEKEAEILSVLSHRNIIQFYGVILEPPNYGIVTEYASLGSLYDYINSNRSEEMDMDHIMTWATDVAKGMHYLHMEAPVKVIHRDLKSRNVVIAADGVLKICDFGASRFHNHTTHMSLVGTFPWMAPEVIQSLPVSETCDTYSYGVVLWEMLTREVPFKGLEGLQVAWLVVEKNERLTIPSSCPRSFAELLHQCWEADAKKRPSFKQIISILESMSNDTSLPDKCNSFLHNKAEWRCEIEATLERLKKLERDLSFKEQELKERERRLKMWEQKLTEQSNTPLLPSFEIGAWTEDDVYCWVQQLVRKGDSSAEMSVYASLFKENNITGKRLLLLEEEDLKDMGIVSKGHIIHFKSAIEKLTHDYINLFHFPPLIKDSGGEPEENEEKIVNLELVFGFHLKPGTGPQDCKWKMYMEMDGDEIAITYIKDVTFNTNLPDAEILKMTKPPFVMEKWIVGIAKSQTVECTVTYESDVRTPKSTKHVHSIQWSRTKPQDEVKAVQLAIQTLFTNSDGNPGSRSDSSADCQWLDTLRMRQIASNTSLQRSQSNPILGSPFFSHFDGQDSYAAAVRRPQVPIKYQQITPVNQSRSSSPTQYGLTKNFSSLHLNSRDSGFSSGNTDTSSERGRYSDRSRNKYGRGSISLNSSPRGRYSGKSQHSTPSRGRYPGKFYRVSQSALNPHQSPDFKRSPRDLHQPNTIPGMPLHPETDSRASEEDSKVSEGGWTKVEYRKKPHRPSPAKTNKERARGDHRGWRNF
Protocol: as §1

AURKB = target: T2, AURKB (Homo sapiens, UniProt Q96GD4); conditions: read-out: Percent Control
T2 construct: purchased KINOMEscan (screening service)
Protocol: as §1

TRPM6 = target: T3, TRPM6 (Homo sapiens, UniProt Q9BX84); conditions: read-out: Percent Control
T3 construct: purchased KINOMEscan (screening platform)
Protocol: as §1

SRC = target: T4, SRC (Homo sapiens, UniProt P12931); conditions: read-out: Percent Control
T4 construct: purchased KINOMEscan (panel service)
T4 sequence (P12931 whole entry): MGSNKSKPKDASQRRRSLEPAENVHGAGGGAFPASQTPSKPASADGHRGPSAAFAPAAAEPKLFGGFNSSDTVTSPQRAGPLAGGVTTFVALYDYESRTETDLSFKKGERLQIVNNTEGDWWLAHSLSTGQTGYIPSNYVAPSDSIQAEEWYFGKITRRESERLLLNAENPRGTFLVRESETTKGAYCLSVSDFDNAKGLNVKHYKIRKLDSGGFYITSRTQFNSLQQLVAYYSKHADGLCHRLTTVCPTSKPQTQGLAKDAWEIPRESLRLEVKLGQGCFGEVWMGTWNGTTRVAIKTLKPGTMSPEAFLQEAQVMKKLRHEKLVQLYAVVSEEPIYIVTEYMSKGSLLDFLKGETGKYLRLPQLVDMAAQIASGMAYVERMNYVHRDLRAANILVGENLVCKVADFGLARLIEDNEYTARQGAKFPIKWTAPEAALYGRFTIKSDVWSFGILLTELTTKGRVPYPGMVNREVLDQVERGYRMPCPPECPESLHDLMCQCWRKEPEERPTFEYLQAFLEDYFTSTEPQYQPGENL
Protocol: as §1

MAP3K3 = MAP3K3 (Homo sapiens, UniProt Q99759); conditions: read-out: Percent Control
Protocol: as §1

GCN2(Kin.Dom.2, S808G) = target: T5, GCN2(Kin.Dom.2, S808G) (Homo sapiens, UniProt Q9P2K8, S808G); conditions: GCN2(Kin.Dom.2, S808G) (Entrez EIF2AK4), read-out: Percent Control
T5 construct: GCN2(Kin.Dom.2, S808G)
Protocol: as §1

[1] = target: T6, JAK2(JH1domain-catalytic) (Homo sapiens, UniProt O60674); conditions: read-out: Percent Control
T6 construct: JAK2(JH1domain-catalytic)
Protocol: as §1

EPHA5 = EPHA5 (Homo sapiens, UniProt P54756); conditions: read-out: Percent Control
Protocol: as §1

TRKC = target: T7, TRKC (Homo sapiens, UniProt Q16288); conditions: TRKC (Entrez NTRK3), read-out: Percent Control
T7 construct: purchased KINOMEscan (screening service)
Protocol: as §1

CSK = CSK (Homo sapiens, UniProt P41240); conditions: read-out: Percent Control
Protocol: as §1

MLK3 = MLK3 (Homo sapiens, UniProt Q16584); conditions: MLK3 (Entrez MAP3K11), read-out: Percent Control
Protocol: as §1

EPHA4 = EPHA4 (Homo sapiens, UniProt P54764); conditions: read-out: Percent Control
Protocol: as §1

EPHB6 = EPHB6 (Homo sapiens, UniProt O15197); conditions: read-out: Percent Control
EPHB6, sequence (O15197 32-1021): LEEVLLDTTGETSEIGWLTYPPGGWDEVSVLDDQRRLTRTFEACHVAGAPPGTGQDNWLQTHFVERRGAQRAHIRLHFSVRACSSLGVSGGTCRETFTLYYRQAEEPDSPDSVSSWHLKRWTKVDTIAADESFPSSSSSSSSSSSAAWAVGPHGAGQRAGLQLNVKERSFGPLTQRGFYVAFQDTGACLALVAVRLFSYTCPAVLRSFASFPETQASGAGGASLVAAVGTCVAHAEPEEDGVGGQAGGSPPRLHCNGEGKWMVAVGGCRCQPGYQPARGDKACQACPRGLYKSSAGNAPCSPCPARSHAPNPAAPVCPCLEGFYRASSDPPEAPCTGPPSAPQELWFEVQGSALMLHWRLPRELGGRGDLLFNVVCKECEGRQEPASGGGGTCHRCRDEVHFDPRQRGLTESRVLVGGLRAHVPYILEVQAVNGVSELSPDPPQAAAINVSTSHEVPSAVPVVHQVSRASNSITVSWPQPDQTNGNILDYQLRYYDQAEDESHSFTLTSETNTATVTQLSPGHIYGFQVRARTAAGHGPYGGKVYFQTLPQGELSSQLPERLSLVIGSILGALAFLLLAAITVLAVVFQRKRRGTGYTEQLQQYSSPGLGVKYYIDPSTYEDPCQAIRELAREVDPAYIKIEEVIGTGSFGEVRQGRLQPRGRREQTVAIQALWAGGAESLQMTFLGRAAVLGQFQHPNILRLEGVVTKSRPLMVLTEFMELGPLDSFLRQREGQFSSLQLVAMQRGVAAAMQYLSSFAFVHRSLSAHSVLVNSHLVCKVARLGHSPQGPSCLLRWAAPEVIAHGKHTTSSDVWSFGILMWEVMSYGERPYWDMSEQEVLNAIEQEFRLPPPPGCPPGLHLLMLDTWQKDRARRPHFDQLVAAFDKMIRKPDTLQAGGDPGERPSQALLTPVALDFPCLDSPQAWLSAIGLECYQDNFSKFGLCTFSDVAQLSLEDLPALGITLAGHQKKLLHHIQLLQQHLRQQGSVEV
Protocol: as §1

YES = target: T8, YES (Homo sapiens, UniProt P07947); conditions: YES (Entrez YES1), read-out: Percent Control
T8 construct: purchased KINOMEscan (panel service)
Protocol: as §1

FYN = target: T9, FYN (Homo sapiens, UniProt P06241); conditions: read-out: Percent Control
T9 construct: purchased KINOMEscan (panel service)
Protocol: as §1

[2] = target: T10, RSK4(Kin.Dom.2-C-terminal) (Homo sapiens, UniProt Q9UK32); conditions: RSK4(Kin.Dom.2-C-terminal) (Entrez RPS6KA6), read-out: Percent Control
T10 construct: RSK4(Kin.Dom.2-C-terminal)
Protocol: as §1

PDGFRA = PDGFRA (Homo sapiens, UniProt P16234); conditions: read-out: Percent Control
PDGFRA, sequence (P16234 24-1089): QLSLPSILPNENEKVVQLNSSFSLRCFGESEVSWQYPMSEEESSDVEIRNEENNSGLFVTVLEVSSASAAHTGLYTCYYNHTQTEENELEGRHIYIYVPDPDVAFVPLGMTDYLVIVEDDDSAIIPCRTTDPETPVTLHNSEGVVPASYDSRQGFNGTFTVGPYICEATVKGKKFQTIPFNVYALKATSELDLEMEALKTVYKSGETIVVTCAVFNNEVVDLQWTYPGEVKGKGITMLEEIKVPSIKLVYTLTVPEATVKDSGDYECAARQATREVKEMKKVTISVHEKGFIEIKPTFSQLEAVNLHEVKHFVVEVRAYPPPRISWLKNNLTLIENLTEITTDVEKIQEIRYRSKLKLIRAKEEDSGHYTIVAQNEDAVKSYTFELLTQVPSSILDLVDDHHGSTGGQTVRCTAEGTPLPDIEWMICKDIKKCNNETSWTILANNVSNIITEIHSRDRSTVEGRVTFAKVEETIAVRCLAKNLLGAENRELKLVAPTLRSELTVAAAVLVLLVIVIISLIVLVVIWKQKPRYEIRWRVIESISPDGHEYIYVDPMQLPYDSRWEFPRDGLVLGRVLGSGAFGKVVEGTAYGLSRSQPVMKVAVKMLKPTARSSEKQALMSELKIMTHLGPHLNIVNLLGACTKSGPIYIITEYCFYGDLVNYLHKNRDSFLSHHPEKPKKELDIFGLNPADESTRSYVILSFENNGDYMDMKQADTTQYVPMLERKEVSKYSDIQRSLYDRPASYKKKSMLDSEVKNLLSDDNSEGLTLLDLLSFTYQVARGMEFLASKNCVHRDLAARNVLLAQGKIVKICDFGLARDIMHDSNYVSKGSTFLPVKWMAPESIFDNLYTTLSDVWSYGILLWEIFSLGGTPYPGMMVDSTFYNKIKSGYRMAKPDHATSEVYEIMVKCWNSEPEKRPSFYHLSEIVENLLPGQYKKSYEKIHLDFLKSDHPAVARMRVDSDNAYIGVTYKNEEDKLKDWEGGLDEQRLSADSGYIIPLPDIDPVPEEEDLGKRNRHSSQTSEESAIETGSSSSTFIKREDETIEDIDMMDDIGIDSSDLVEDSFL
Protocol: as §1

FGR = FGR (Homo sapiens, UniProt P09769); conditions: read-out: Percent Control
FGR, sequence (P09769 whole entry): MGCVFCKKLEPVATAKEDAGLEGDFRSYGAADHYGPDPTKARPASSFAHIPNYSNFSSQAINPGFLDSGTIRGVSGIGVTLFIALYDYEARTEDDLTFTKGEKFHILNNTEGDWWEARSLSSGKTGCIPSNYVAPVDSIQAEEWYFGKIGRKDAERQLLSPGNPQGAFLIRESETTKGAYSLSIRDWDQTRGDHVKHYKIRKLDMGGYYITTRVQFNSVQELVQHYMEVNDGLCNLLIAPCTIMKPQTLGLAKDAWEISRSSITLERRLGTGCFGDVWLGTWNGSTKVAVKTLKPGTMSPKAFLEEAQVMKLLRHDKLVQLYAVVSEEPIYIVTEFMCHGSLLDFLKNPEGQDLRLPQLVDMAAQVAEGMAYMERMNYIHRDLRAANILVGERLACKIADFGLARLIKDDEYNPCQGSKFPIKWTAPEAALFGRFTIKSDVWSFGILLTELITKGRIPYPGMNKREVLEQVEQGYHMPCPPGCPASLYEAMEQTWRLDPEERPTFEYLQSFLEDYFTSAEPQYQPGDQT
Protocol: as §1

BRK = BRK (Homo sapiens, UniProt Q13882); conditions: BRK (Entrez PTK6), read-out: Percent Control
BRK, sequence (Q13882 whole entry): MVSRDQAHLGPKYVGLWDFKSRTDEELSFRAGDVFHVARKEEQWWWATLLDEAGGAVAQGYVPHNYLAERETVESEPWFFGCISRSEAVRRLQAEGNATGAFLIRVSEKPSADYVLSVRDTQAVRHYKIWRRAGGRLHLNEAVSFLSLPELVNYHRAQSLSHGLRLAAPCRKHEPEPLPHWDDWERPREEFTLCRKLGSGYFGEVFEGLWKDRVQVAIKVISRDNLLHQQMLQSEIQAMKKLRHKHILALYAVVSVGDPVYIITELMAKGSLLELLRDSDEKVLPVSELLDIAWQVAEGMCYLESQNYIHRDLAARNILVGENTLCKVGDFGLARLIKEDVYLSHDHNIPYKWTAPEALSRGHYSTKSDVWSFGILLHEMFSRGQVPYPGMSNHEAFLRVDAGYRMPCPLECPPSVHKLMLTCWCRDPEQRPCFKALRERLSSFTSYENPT
Protocol: as §1

LYN = target: T11, LYN (Homo sapiens, UniProt P07948); conditions: read-out: Percent Control
T11 construct: purchased KINOMEscan (panel service)
T11 sequence (P07948 whole entry): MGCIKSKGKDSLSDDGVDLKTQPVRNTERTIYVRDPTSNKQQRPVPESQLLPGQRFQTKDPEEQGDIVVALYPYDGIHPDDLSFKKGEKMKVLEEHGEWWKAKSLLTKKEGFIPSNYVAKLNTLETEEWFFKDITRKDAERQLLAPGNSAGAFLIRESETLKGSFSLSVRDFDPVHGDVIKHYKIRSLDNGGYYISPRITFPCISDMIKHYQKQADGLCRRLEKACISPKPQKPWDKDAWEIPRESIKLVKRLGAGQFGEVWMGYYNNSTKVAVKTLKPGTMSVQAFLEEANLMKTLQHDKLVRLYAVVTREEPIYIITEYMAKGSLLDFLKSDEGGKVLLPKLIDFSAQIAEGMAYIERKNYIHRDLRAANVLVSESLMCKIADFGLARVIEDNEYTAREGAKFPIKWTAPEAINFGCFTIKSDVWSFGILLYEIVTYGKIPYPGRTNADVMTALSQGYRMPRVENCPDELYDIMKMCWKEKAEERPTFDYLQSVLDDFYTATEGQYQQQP
Protocol: as §1

RET(M918T) = RET(M918T) (Homo sapiens, UniProt P07949, M918T); conditions: read-out: Percent Control
Protocol: as §1

TIE1 = TIE1 (Homo sapiens, UniProt P35590); conditions: read-out: Percent Control
Protocol: as §1

FER = FER (Homo sapiens, UniProt P16591); conditions: read-out: Percent Control
Protocol: as §1

CIT = target: T12, CIT (Homo sapiens, UniProt O14578); conditions: read-out: Percent Control
T12 construct: purchased KINOMEscan (panel service)
Protocol: as §1

[3] = target: ABL1(E255K)-phosphorylated (Homo sapiens, UniProt P00519, E255K); conditions: read-out: Percent Control
Protocol: as §1

EGFR(E746-A750del) = EGFR(E746-A750del) (Homo sapiens, UniProt P00533, DEL746-750); conditions: read-out: Percent Control
Protocol: as §1

BRAF(V600E) = target: T13, BRAF(V600E) (Homo sapiens, UniProt P15056, V600E); conditions: read-out: Percent Control
T13 construct: purchased KINOMEscan (panel service)
Protocol: as §1

TNIK = TNIK (Homo sapiens, UniProt Q9UKE5); conditions: read-out: Percent Control
Protocol: as §1

MINK = MINK (Homo sapiens, UniProt Q8N4C8); conditions: MINK (Entrez MINK1), read-out: Percent Control
Protocol: as §1

TNK2 = TNK2 (Homo sapiens, UniProt Q07912); conditions: read-out: Percent Control
Protocol: as §1

ABL1-nonphosphorylated = ABL1-nonphosphorylated (Homo sapiens, UniProt P00519); conditions: read-out: Percent Control
Protocol: as §1

EGFR(L861Q) = EGFR(L861Q) (Homo sapiens, UniProt P00533, L861Q); conditions: read-out: Percent Control
Protocol: as §1

Compound: Cc1ccc(Nc2ncc3c(n2)N(C)CN(c2cc(NC(=O)c4cccc(C(F)(F)F)c4)ccc2C)C3)cn1 [IA-9, N-(4-methyl-3-(1-methyl-7-((6-methylpyridin-3-yl)amino)-1,4-dihydropyrimido[4,5-d]pyrimidin-3(2H)-yl)phenyl)-3-(trifluoromethyl)benzamide]
- remaining binding at 10 µM (NEK4): 30%
- remaining binding at 10 µM (JNK2): 0.7%
- remaining binding at 10 µM (HCK): 0.55%
- remaining binding at 10 µM (ZAK): 0.55%
- remaining binding at 10 µM (AURKB): 15%
- remaining binding at 10 µM (TRPM6): 26%
- remaining binding at 10 µM (SRC): 0.15%
- remaining binding at 10 µM (MAP3K3): 1.3%
- remaining binding at 10 µM (GCN2(Kin.Dom.2, S808G)): 1.3%
- remaining binding at 10 µM [1]: 0.35%
- remaining binding at 10 µM (EPHA5): 0.9%
- remaining binding at 10 µM (TRKC): 7.2%
- remaining binding at 10 µM (CSK): 0.9%
- remaining binding at 10 µM (MLK3): 5.8%
- remaining binding at 10 µM (EPHA4): 0%
- remaining binding at 10 µM (EPHB6): 0.3%
- remaining binding at 10 µM (YES): 0.05%
- remaining binding at 10 µM (FYN): 0.05%
- remaining binding at 10 µM [2]: 2.6%
- remaining binding at 10 µM (PDGFRA): 1.6%
- remaining binding at 10 µM (FGR): 0%
- remaining binding at 10 µM (BRK): 0.9%
- remaining binding at 10 µM (LYN): 0.1%
- remaining binding at 10 µM (RET(M918T)): 0%
- remaining binding at 10 µM (TIE1): 5.6%
- remaining binding at 10 µM (FER): 3.6%
- remaining binding at 10 µM (CIT): 0.1%
- remaining binding at 10 µM [3]: 1.2%
- remaining binding at 10 µM (EGFR(E746-A750del)): 2.3%
- remaining binding at 10 µM (BRAF(V600E)): 0.1%
- remaining binding at 10 µM (TNIK): 4.8%
- remaining binding at 10 µM (MINK): 3.6%
- remaining binding at 10 µM (TNK2): 2.4%
- remaining binding at 10 µM (ABL1-nonphosphorylated): 0.3%
- remaining binding at 10 µM (EGFR(L861Q)): 0%
